The target of assay [1] is T1, CDK1/CycB (Homo sapiens, UniProt P06493).
T1 construct: GST; purchased ProQinase GmbH, Freiburg; host or cells: baculovirus-infected Sf9 insect cells
Description: CDK1/CycB kinase assay (33P-ATP incorporation into histone IIIS, filter strip scintillation). In kind it is biochemical. The note with it: recombinant CDK1- and CycB-GST fusion proteins; 0,5 µM ATP; 10 min at 22°C; substrate Histon IIIS; read-out: CDK1/CycB (Assay 1) Konzentration der halbmaximalen Inhibition der Enzymaktivität, IC50. The protocol: Assay 1: CDK1/CycB Kinase Assay
Rekombinante CDK1- und CycB-GST-Fusionsproteine, gereinigt aus Bakulovirusinfizierten Insektenzellen (Sf9), wurden von ProQinase GmbH, Freiburg, gekauft. Das als Kinase-Substrat verwendet Histon IIIS ist über die Fa. Sigma käuflich zu erwerben.
CDK1/CycB (200 ng/Messpunkt) wurde für 10 min bei 22°C in Anwesenheit verschiedener Konzentrationen an Testsubstanzen (0 µM, sowie innerhalb des Bereiches 0,001 - 10 µM) in Assaypuffer [50 mM Tris/HCl pH8,0; 10 mM MgCl2; 0,1 mM Na ortho-Vanadat; 1,0 mM Dithiothreitol; 0,5 µM Adenosintrisphosphat (ATP); 10 µg/Messpunkt Histon IIIS; 0,2 µCi/Messpunkt ^33P-gamma ATP; 0,05% NP40; 1,25% Dimethylsulfoxid] inkubiert. Die Reaktion wurde durch Zugabe von EDTA-Lösung (250 mM; pH8,0; 15 µl/Messpunkt) gestoppt.
Von jedem Reaktionsansatz wurden 15 µl auf P30 Filterstreifen (Fa. Wallac) aufgetragen, und nicht-eingebautes ^33P-ATP wurde durch dreimaliges Waschen der Filterstreifen für je 10 min in 0,5%iger Phosphorsäure entfernt. Nach dem Trocknen der Filterstreifen für 1 Stunde bei 70°C wurden die Filterstreifen mit Szintillator-Streifen (MeltiLex™ A, Fa. Wallac) bedeckt und für 1 Stunde bei 90°C eingebrannt. Die Menge an eingebautem ^33P (Substratphosphorylierung) wurde durch Szintillationsmessung in einem Gamma-Strahlungsmessgerät (Wallac) bestimmt. […]

The target in assay [2] is T2, CDK2/CycE (Homo sapiens, UniProt P24941).
T2 construct: GST; purchased ProQinase GmbH, Freiburg; host or cells: baculovirus-infected Sf9 insect cells
Description: CDK2/CycE kinase assay (33P-ATP incorporation into histone IIIS, filter strip scintillation). In kind it is biochemical. Particulars: recombinant CDK2- and CycE-GST fusion proteins; 0,5 µM ATP; 10 min at 22°C; substrate Histon IIIS; read-out: CDK2/CycE (Assay 2) Konzentration der halbmaximalen Inhibition der Enzymaktivität, IC50. The protocol:
Assay 2: CDK2/CycE Kinase Assay
Rekombinante CDK2- und CycE-GST-Fusionsproteine, gereinigt aus Bakulovirusinfizierten Insektenzellen (Sf9), wurden von ProQinase GmbH, Freiburg, gekauft. Histon IIIS, das als Kinase-Substrat verwendet wurde, wurde bei der Fa. Sigma gekauft.
CDK2/CycE (50 ng/Messpunkt) wurde für 10 min bei 22°C in Anwesenheit verschiedener Konzentrationen an Testsubstanzen (0 µM, sowie innerhalb des Bereiches 0,001 - 10 µM) in Assaypuffer [50 mM Tris/HCl pH8,0; 10 mM MgCl2; 0,1 mM Na ortho-Vanadat; 1,0 mM Dithiothreitol; 0,5 µM Adenosintrisphosphat (ATP); 10 µg/Messpunkt Histon IIIS; 0,2 µCi/Messpunkt ^33P-gamma ATP; 0,05% NP40; 1,25% Dimethylsulfoxid] inkubiert. Die Reaktion wurde durch Zugabe von EDTA-Lösung (250 mM; pH8,0; 15 µl/Messpunkt) gestoppt.
Von jedem Reaktionsansatz wurden 15 µl auf P30 Filterstreifen (Fa. Wallac) aufgetragen, und nicht-eingebautes ^33P-ATP wurde durch dreimaliges Waschen der Filterstreifen für je 10 min in 0,5%iger Phosphorsäure entfernt. Nach dem Trocknen der Filterstreifen für 1 Stunde bei 70°C wurden die Filterstreifen mit Szintillator-Streifen (MeItiLex™ A, Fa. Wallac) bedeckt und für 1 Stunde bei 90°C eingebrannt. Die Menge an eingebautem ^33P (Substratphosphorylierung) wurde durch Szintillationsmessung in einem Gamma-Strahlungsmessgerät (Wallac) bestimmt. […]

pIC50: −log10 of the molar value.

T1 sequence (P06493 whole entry): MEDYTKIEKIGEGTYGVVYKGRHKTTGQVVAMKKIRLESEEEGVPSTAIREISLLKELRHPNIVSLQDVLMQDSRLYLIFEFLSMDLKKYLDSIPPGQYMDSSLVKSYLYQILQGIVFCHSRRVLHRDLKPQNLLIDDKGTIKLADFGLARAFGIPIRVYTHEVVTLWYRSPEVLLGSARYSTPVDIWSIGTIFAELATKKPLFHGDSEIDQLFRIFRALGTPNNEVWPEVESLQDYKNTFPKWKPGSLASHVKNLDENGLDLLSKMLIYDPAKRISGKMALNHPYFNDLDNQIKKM
T1 sequence (P14635 whole entry partner): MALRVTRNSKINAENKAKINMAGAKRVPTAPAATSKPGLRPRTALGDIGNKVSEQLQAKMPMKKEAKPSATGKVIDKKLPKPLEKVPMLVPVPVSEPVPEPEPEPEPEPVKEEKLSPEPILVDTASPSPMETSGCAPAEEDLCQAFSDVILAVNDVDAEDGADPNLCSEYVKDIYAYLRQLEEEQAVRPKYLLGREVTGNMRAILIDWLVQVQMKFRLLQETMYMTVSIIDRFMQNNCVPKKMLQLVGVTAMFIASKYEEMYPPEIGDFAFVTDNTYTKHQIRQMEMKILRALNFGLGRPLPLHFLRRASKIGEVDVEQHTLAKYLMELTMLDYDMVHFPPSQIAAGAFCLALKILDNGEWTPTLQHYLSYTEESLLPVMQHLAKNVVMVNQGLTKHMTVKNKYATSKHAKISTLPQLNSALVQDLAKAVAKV

For the compound `C[C@@H](O)[C@@H](C)Oc1nc(Nc2ccc([S+](C)[O-])cc2)ncc1C(F)(F)F` (stereo partly drawn) [Beispiel 1, (2R,3R)-3-[2-(4-Methansulfinyl-phenylamino)-5-trifluormethyl-pyrimidin-4-yloxy]-butan-2-ol], the values for the pIC50 in assay [1] and in assay [2] were 8.15 and 8.30, respectively.
The corresponding values for `C[C@@H](Oc1nc(Nc2ccc([S+](C)[O-])cc2)ncc1C(F)(F)F)C(C)(C)O` (stereo partly drawn) [Beispiel 2, (R)-3-[2-(4-Methansulfinyl-phenylamino)-5-trifluormethyl-pyrimidin-4-yloxy]-2-methyl-butan-2-ol] are 7.52 and 7.92.

These data come from patent EP2179993A1, “Sulfoxide substituted aniline pyrimidine derivatives as CDK inhibitors, their manufacture and use as medicine” (Bayer Schering Pharma Aktiengesellschaft, priority 2008, dated 2010).
